Experimental data as given in patent publication US20080120731A1, “Transgenic Animal Models for Neurodevelopmental Disorders” (priority 2004, published 2008).
Where two headings read alike, the source gives them in different places.

How the values were obtained:
[1] = system: APH1BC^−/− mice; test: Prepulse inhibition (PPI) of acoustic startle after antipsychotic injection; format: in vivo
From the text: Schizophrenia is a complex disease characterized by delusions and hallucinations (so-called positive symptoms), affective and social disturbances (negative symptoms), but also by cognitive deficits. Disturbed information processing, and more specifically an impairment in the filtering of irrelevant stimuli, is thought to contribute to the disease phenotype by causing “sensory flooding”, which may lead to cognitive fragmentation. A psychophysical measure of (pre-attentive) information filtering is “prepulse inhibition” (PPI). […] The strength of this reflex response is read out by recording the amplitude of the eye-blink response that is part of the startling reaction. This way, the amplitude of the eye-blink response is a measure of the efficiency of the coupling of the sensory stimulus to the motor reflex programme. If the startle stimulus is preceded by a weak, non-startling “prepulse stimulus”, e.g. a tone just above background noise levels, the amplitude of the eye-blink response to the startle stimulus is strongly diminished in normal individuals. […] The “% prepulse inhibition (PPI)” is quantified as: 100−((A2/A1)*100), with A1 being the amplitude of the response to the startle stimulus and A2 the amplitude of the response to the same startle stimulus preceded by the prepulse stimulus. […] In rodents the motor reaction to a startle stimulus is quantified by placing mice into a restraining tube in a sound-proof cabin mounted onto a pressure sensitive platform. Upon presentation of the startling sound, the mouse flinches and the pressure it exerts via its limbs is recorded quantitatively as a ballistogram that can be analysed using appropriate software. This way, the effect of a preceding prepulse on the flinching reaction to a startle stimulus can be calculated.
For all trials, background noise was 70 db, the prepulse preceded the startle stimulus by 100 ms, the prepulse stimuli lasted 20 ms and the startle stimuli lasted 60 ms. […] For each of the four different combinations of prepulse and startle stimulus, the % PPI was calculated using the formula described above. […]

[2] = system: APH1BC ^−/− mice; test: Locomotor activity (infrared beam breaks in activity monitor) after amphetamine; conditions: 3 μg/kg intraparietally
[3] = system: APH1BC ^−/− mice; test: Open field locomotor activity (total distance traveled) after apomorphine; conditions: 2 μg/kg subcutaneously; for activity at 0.002 mg/kg: Mus musculus, sc, 10 min

O=C(CCCN1CCC(O)(c2ccc(Cl)cc2)CC1)c1ccc(F)cc1 [haloperidol, Haloperidol]
PPI in APH1BC^−/− mice relative to wild type levels ([1]; APH1BC^−/− mice, pp 74/p110 and pp 78/p110 trials, 1 μg/kg injected intra-parietally, PPI measured 45 min after injection): essentially normalized | effects on (improvements of) PPI in the p100 trials ([1]; p100 trials, 1 μg/kg intra-parietally, 45 min after injection): small but insignificant effects | wild type PPI levels compared to placebo-injected animals ([1]; wild type littermates, pp74/p110 and pp 78/p110 trials, 1 μg/kg intra-parietally, 45 min after injection): significantly elevated

CC(N)Cc1ccccc1 (stereo not shown) [amphetamine, Amphetamine]
reaction of APH1BC ^−/− mice versus wild-type littermates (rise in activity, maximal activity, total activity over two hours) ([2]; p=0,06 for genotype effect): reacted more strongly | time of peak locomotor activity after injection ([2]; […]): 35 to 40 min | locomotor activity after drug administration ([2]; […], monitored 2 h after injection): rose strongly and continuously

CN1CCc2cccc3c2[C@H]1Cc1ccc(O)c(O)c1-3 [apomorphine]
reaction of APH1BC ^−/− mice versus wild-type littermates ([3]; p=0,045 two-tailed student's t test): reacted more strongly | activity at 0.002 mg/kg ([3]; read-out: residual activity (distance APO/distance placebo)*100%, APH1BC −/− mice, 10 min open field): 27% | activity at 0.002 mg/kg ([3]; read-out: residual activity (distance APO/distance placebo)*100%, wild type mice, 10 min open field): 50% | effect on locomotion (total distance traveled in open field) ([3]; […], 10 min open field, p<0,001 for treatment effect): strong inhibition of locomotion
